Values joined by “and” are separate entries in the source; they are usually repeats but may differ in a detail not shown here. Identical values can stand only once. Toxic doses and inconclusive results are not listed.
System: L1210 leukemia ip in BDF1 mice, survival T/C
Assay: NCI In Vivo Anticancer Drug Screen. Data for tumor model L1210 Leukemia (intraperitoneal) in B6D2F1 (BDF1) mice
Conditions: endpoint: mean survival time, higher = longer survival
How it was run: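 Ratio derived from survival: compound-dosed mice over vehicle-dosed mice, all bearing a transplantable tumor.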

[1] = dose: 100.0 mg/kg/injection, schedule: Q04DX002 (ip), vehicle: Klucel (hydroxypropylcellulose) (HPC)
[2] = dose: 200.0 mg/kg/injection, schedule: Q04DX002 (ip), vehicle: Klucel (hydroxypropylcellulose) (HPC)
[3] = dose: 400.0 mg/kg/injection, schedule: Q04DX002 (ip), vehicle: Klucel (hydroxypropylcellulose) (HPC)
[4] = dose: 100.0 mg/kg/injection, schedule: Q01DX001 (ip), vehicle: saline
[5] = dose: 200.0 mg/kg/injection, schedule: Q01DX001 (ip), vehicle: saline
[6] = dose: 400.0 mg/kg/injection, schedule: Q01DX001 (ip), vehicle: saline
[7] = dose: 100.0 mg/kg/injection, schedule: Q01DX009 (ip), vehicle: Klucel (hydroxypropylcellulose) (HPC)
[8] = dose: 100.0 mg/kg/injection, schedule: Q01DX009 (ip), vehicle: saline
[9] = dose: 100.0 mg/kg/injection, schedule: Q04DX003 (ip), vehicle: Klucel (hydroxypropylcellulose) (HPC)
[10] = dose: 200.0 mg/kg/injection, schedule: Q01DX009 (ip), vehicle: Klucel (hydroxypropylcellulose) (HPC)
[11] = dose: 200.0 mg/kg/injection, schedule: Q01DX009 (ip), vehicle: saline
[12] = dose: 200.0 mg/kg/injection, schedule: Q04DX003 (ip), vehicle: Klucel (hydroxypropylcellulose) (HPC)
[13] = dose: 400.0 mg/kg/injection, schedule: Q01DX009 (ip), vehicle: Klucel (hydroxypropylcellulose) (HPC)
[14] = dose: 400.0 mg/kg/injection, schedule: Q01DX009 (ip), vehicle: saline
[15] = dose: 400.0 mg/kg/injection, schedule: Q04DX003 (ip), vehicle: Klucel (hydroxypropylcellulose) (HPC)
[16] = dose: 6.25 mg/kg/injection, schedule: Q01DX009 (ip), vehicle: saline with Tween-80
[17] = dose: 12.5 mg/kg/injection, schedule: Q01DX009 (ip), vehicle: saline with Tween-80

O=C(O)c1ccc(CCCCBr)cc1
T/C [1]: 96 % of control | T/C [2]: 100 % of control | T/C [3]: 96 % of control

CCOC(=O)C(C(=O)OCC)C(CC)c1ccccc1 (configuration not stated)
T/C (dose: 100.0 mg/kg/injection, schedule: Q01DX009 (ip), vehicle: saline with Tween-80): 101 % of control | T/C (dose: 100.0 mg/kg/injection, schedule: Q04DX002 (ip), vehicle: saline with Tween-80): 103 % of control | T/C (dose: 200.0 mg/kg/injection, schedule: Q01DX009 (ip), vehicle: saline with Tween-80): 92 % of control | T/C (dose: 200.0 mg/kg/injection, schedule: Q04DX002 (ip), vehicle: saline with Tween-80): 100 % of control | T/C (dose: 400.0 mg/kg/injection, schedule: Q01DX009 (ip), vehicle: saline with Tween-80): 95 % of control | T/C (dose: 400.0 mg/kg/injection, schedule: Q04DX002 (ip), vehicle: saline with Tween-80): 95 % of control

C/C(=N/OC(=O)N(C)C)c1ccc([N+](=O)[O-])cc1
T/C [4]: 104 % of control | T/C [5]: 104 % of control | T/C [6]: 104 % of control

CC(Nc1nc(SCc2ccccc2)c2ncn(C3OC(CO)C(O)C3O)c2n1)C(=O)O (configuration not stated)
T/C (dose: 50.0 mg/kg/injection, schedule: Q01DX001 (ip), vehicle: carboxymethylcellulose (CMC)): 107 % of control | T/C (dose: 100.0 mg/kg/injection, schedule: Q01DX001 (ip), vehicle: carboxymethylcellulose (CMC)): 109 % of control | T/C (dose: 200.0 mg/kg/injection, schedule: Q01DX001 (ip), vehicle: carboxymethylcellulose (CMC)): 104 % of control | T/C (dose: 400.0 mg/kg/injection, schedule: Q01DX001 (ip), vehicle: carboxymethylcellulose (CMC)): 104 % of control

CCc1nc(N)nc(N)c1-c1ccc(N(CCCl)CCCl)cc1
T/C (dose: 13.0 mg/kg/injection, schedule: Q01DX Z (ip), vehicle: methylcellulose (MC)): 108 % of control | T/C (dose: 20.0 mg/kg/injection, schedule: Q01DX Z (ip), vehicle: methylcellulose (MC)): 103 % of control | T/C (dose: 30.0 mg/kg/injection, schedule: Q01DX Z (ip), vehicle: methylcellulose (MC)): 108 % of control | T/C (dose: 45.0 mg/kg/injection, schedule: Q01DX Z (ip), vehicle: methylcellulose (MC)): 113 % of control

O=C(O)CC1CCC(NC(=O)NCCCl)CC1 (configuration not stated)
T/C (dose: 100.0 mg/kg/injection, schedule: Q01DX001 (ip), vehicle: saline with Tween-80): 105 % of control | T/C (dose: 200.0 mg/kg/injection, schedule: Q01DX001 (ip), vehicle: saline with Tween-80): 102 % of control

O=C(CCCl)N1CCN(C(=O)CCCl)CC1
T/C [7]: 106 % of control | T/C [8]: 103 % of control | T/C [9]: 100 % of control | T/C (dose: 117.32 mg/kg/injection, schedule: Q01DX009 (ip), vehicle: saline): 119 % of control | T/C (dose: 148.0 mg/kg/injection, schedule: Q01DX Z (ip), vehicle: methylcellulose (MC)): 100 % of control | T/C (dose: 176.0 mg/kg/injection, schedule: Q01DX009 (ip), vehicle: saline): 100 % of control | T/C [10]: 108 % of control | T/C [11]: 119 % of control | T/C [12]: 99 % of control | T/C (dose: 222.0 mg/kg/injection, schedule: Q01DX Z (ip), vehicle: methylcellulose (MC)): 104 % of control | T/C (dose: 264.0 mg/kg/injection, schedule: Q01DX009 (ip), vehicle: saline): 116 % of control | T/C (dose: 333.0 mg/kg/injection, schedule: Q01DX Z (ip), vehicle: methylcellulose (MC)): 119 % of control | T/C [13]: 122 % of control | T/C [14]: 161 % of control and 167 % of control | T/C [15]: 121 % of control | T/C (dose: 500.0 mg/kg/injection, schedule: Q01DX Z (ip), vehicle: methylcellulose (MC)): 97 % of control | T/C (dose: 800.0 mg/kg/injection, schedule: Q01DX009 (ip), vehicle: Klucel (hydroxypropylcellulose) (HPC)): 155 % of control

COc1ccc(Cl)cc1NC(=O)c1ccco1
T/C [7]: 89 % of control | T/C [10]: 87 % of control | T/C [13]: 97 % of control

Nc1nc2c(=O)[nH]cnc2n1C1OC(CO)C(O)C1O (configuration not stated)
T/C (dose: 5.0 mg/kg/injection, schedule: Q01DX001 (ip), vehicle: saline): 102 % of control | T/C (dose: 10.0 mg/kg/injection, schedule: Q01DX001 (ip), vehicle: saline): 104 % of control | T/C (dose: 20.0 mg/kg/injection, schedule: Q01DX001 (ip), vehicle: saline): 102 % of control

O=C(C1CC1)C1OC1c1ccccc1 (configuration not stated)
T/C (dose: 100.0 mg/kg/injection, schedule: Q01DX001 (ip), vehicle: Klucel (hydroxypropylcellulose) (HPC)): 96 % of control | T/C (dose: 200.0 mg/kg/injection, schedule: Q01DX001 (ip), vehicle: Klucel (hydroxypropylcellulose) (HPC)): 100 % of control | T/C (dose: 400.0 mg/kg/injection, schedule: Q01DX001 (ip), vehicle: Klucel (hydroxypropylcellulose) (HPC)): 94 % of control

N#CCCCCCCN=[N+]=[N-]
T/C (dose: 37.5 mg/kg/injection, schedule: Q04DX003 (ip), vehicle: saline): 106 % of control | T/C (dose: 75.0 mg/kg/injection, schedule: Q04DX003 (ip), vehicle: saline): 101 % of control | T/C (dose: 150.0 mg/kg/injection, schedule: Q04DX003 (ip), vehicle: saline): 102 % of control

CC(=O)c1ccc(CC(C)C)cc1
T/C (dose: 150.0 mg/kg/injection, schedule: Q01DX009 (ip), vehicle: Klucel (hydroxypropylcellulose) (HPC)): 90 % of control | T/C (dose: 300.0 mg/kg/injection, schedule: Q01DX009 (ip), vehicle: Klucel (hydroxypropylcellulose) (HPC)): 94 % of control

O=NN(CCCl)C(=O)NN1CCCCCC1
T/C (dose: 15.0 mg/kg/injection, schedule: Q01DX001 (ip), vehicle: carboxymethylcellulose (CMC)): 101 % of control | T/C (dose: 30.0 mg/kg/injection, schedule: Q01DX001 (ip), vehicle: carboxymethylcellulose (CMC)): 101 % of control

Nc1ccc(/C=C/c2ccnc3ccccc23)cc1
T/C (dose: 0.5 mg/kg/injection, schedule: Q01DX015 (ip), vehicle: saline): 101 % of control | T/C (dose: 1.0 mg/kg/injection, schedule: Q01DX015 (ip), vehicle: saline): 101 % of control | T/C (dose: 2.0 mg/kg/injection, schedule: Q01DX015 (ip), vehicle: saline): 101 % of control | T/C (dose: 4.0 mg/kg/injection, schedule: Q01DX015 (ip), vehicle: saline): 101 % of control | T/C (dose: 50.0 mg/kg/injection, schedule: Q01DX001 (ip), vehicle: saline): 95 % of control | T/C [4]: 97 % of control | T/C [5]: 95 % of control | T/C [6]: 105 % of control

O=C1C=CC(=O)N1CN1CCOCC1
T/C (dose: 3.12 mg/kg/injection, schedule: Q01DX009 (ip), vehicle: saline with Tween-80): 96 % of control | T/C [16]: 96 % of control | T/C [17]: 93 % of control

CN1CCC(CCOCc2ccccc2)(CN2c3ccccc3Sc3ccccc32)C1 (configuration not stated)
T/C [16]: 93 % of control | T/C [17]: 98 % of control | T/C (dose: 25.0 mg/kg/injection, schedule: Q01DX009 (ip), vehicle: saline with Tween-80): 93 % of control

COc1ccc(N=C(c2ccccc2)c2ccc([N+](=O)[O-])cc2)cc1
T/C [7]: 91 % of control | T/C [9]: 93 % of control | T/C [10]: 101 % of control | T/C [12]: 98 % of control | T/C [13]: 98 % of control | T/C [15]: 98 % of control

O=C(CCCc1ccc([N+](=O)[O-])cc1)Nc1ccc(S(=O)(=O)F)cc1
T/C [4]: 101 % of control | T/C [5]: 100 % of control | T/C [6]: 97 % of control

CC(=O)ONc1nc(C)c(CCC2OCCO2)c(SC(=N)N)n1
T/C [8]: 109 % of control | T/C (dose: 100.0 mg/kg/injection, schedule: Q04DX003 (ip), vehicle: saline): 110 % of control | T/C [11]: 113 % of control | T/C (dose: 200.0 mg/kg/injection, schedule: Q04DX003 (ip), vehicle: saline): 105 % of control | T/C [14]: 93 % of control | T/C (dose: 400.0 mg/kg/injection, schedule: Q04DX003 (ip), vehicle: saline): 100 % of control

O=C(Oc1ccc(Cl)cc1Cl)c1ccc([N+](=O)[O-])cc1
T/C [1]: 93 % of control | T/C [2]: 97 % of control | T/C [3]: 87 % of control
